Data taken from ChEMBL document CHEMBL5214900, “Design, Synthesis, and Biological Evaluation of Membrane-Active Bakuchiol Derivatives as Effective Broad-Spectrum Antibacterial Agents” (J Med Chem, 2021).
≈ marks a conversion by molar mass, not a printed value.

How the values were obtained:
[1] = system: Staphylococcus aureus; experiment: Induction of drug resistance in Staphylococcus aureus ATCC 29213 assessed as fold change in MIC measured after 19 passages by CLSI based broth dilution method; format: functional
[2] = system: Staphylococcus aureus; experiment: Antibacterial activity against methicillin-resistant Staphylococcus aureus NCTC10442 assessed as inhibition of bacterial growth incubated for 24 hrs by CLSI based broth dilution method; format: functional
[3] = Hemolytic activity in rabbit RBC measured after 1 hrs by multimode reader assay; format: toxicity, cell-based, Oryctolagus cuniculus, Erythrocyte; conditions: rabbit red blood cells (erythrocytes)
[4] = system: Staphylococcus aureus; experiment: Antibacterial activity against Staphylococcus aureus ATCC 29213 assessed as inhibition of bacterial growth incubated for 24 hrs by CLSI based broth dilution method; format: functional
[5] = Dissociation constant, pKa of compound by potentiometric titration method; format: physicochemical
[6] = system: Escherichia coli; experiment: Antibacterial activity against Escherichia coli ATCC 25922 assessed as inhibition of bacterial growth incubated for 24 hrs by CLSI based broth dilution method; format: functional
[7] = system: Staphylococcus aureus; experiment: Antibacterial activity against methicillin-resistant Staphylococcus aureus N315 assessed as inhibition of bacterial growth incubated for 24 hrs by CLSI based broth dilution method; format: functional
[8] = system: Staphylococcus aureus; experiment: Antibacterial activity against Staphylococcus aureus NCTC10442 assessed as fold increase in MIC incubated for 24 hrs in presence of 2.5 mM Ca2+ by CLSI based broth dilution method; format: functional
[9] = system: Escherichia coli; experiment: Antibacterial activity against Escherichia coli ATCC 25922 assessed as fold increase in MIC incubated for 24 hrs in presence of 4.5 mM K+ by CLSI based broth dilution method; format: functional
[10] = system: Acinetobacter baumannii; experiment: Antibacterial activity against Acinetobacter baumannii ATCC 17978 assessed as inhibition of bacterial growth incubated for 24 hrs by CLSI based broth dilution method; format: functional
[11] = system: Staphylococcus aureus; experiment: Antibacterial activity against Staphylococcus aureus ATCC 29213 assessed as fold increase in MIC incubated for 24 hrs in presence of 140 mM Na+ by CLSI based broth dilution method; format: functional
[12] = system: Acinetobacter baumannii; experiment: Antibacterial activity against Acinetobacter baumannii ATCC 17978 assessed as fold increase in MIC incubated for 24 hrs in presence of 4.5 mM K+ by CLSI based broth dilution method; format: functional
[13] = system: Staphylococcus aureus; experiment: Antibacterial activity against Staphylococcus aureus NCTC10442 assessed as fold increase in MIC incubated for 24 hrs in presence of 140 mM Na+ by CLSI based broth dilution method; format: functional
[14] = system: Staphylococcus aureus; experiment: Antibacterial activity against Staphylococcus aureus NCTC10442 assessed as fold increase in MIC incubated for 24 hrs in presence of 1 mM Mg2+ by CLSI based broth dilution method; format: functional
[15] = system: Acinetobacter baumannii; experiment: Antibacterial activity against Acinetobacter baumannii ATCC 17978 assessed as fold increase in MIC incubated for 24 hrs in presence of 1 mM Mg2+ by CLSI based broth dilution method; format: functional
[16] = system: Staphylococcus aureus; experiment: Antibacterial activity against Staphylococcus aureus ATCC 29213 assessed as fold increase in MIC incubated for 24 hrs in presence of 4.5 mM K+ by CLSI based broth dilution method; format: functional
[17] = system: Acinetobacter baumannii; experiment: Antibacterial activity against Acinetobacter baumannii ATCC 17978 assessed as fold increase in MIC incubated for 24 hrs in presence of 140 mM Na+ by CLSI based broth dilution method; format: functional
[18] = system: Escherichia coli; experiment: Antibacterial activity against Escherichia coli ATCC 25922 assessed as fold increase in MIC incubated for 24 hrs in presence of 1 mM Mg2+ by CLSI based broth dilution method; format: functional
[19] = system: Escherichia coli; experiment: Antibacterial activity against Escherichia coli ATCC 25922 assessed as fold increase in MIC incubated for 24 hrs in presence of 140 mM Na+ by CLSI based broth dilution method; format: functional
[20] = system: Staphylococcus aureus; experiment: Antibacterial activity against Staphylococcus aureus NCTC10442 assessed as fold increase in MIC incubated for 24 hrs in presence of 4.5 mM K+ by CLSI based broth dilution method; format: functional
[21] = system: Acinetobacter baumannii; experiment: Antibacterial activity against Acinetobacter baumannii ATCC 17978 assessed as fold increase in MIC incubated for 24 hrs in presence of 2.5 mM Ca2+ by CLSI based broth dilution method; format: functional
[22] = system: Pseudomonas aeruginosa; experiment: Antibacterial activity against Pseudomonas aeruginosa ATCC 9027 assessed as inhibition of bacterial growth incubated for 24 hrs by CLSI based broth dilution method; format: functional
[23] = system: Klebsiella pneumoniae; experiment: Antibacterial activity against Klebsiella pneumoniae ATCC 14581 assessed as inhibition of bacterial growth incubated for 24 hrs by CLSI based broth dilution method; format: functional
[24] = system: Staphylococcus aureus; experiment: Antibacterial activity against Staphylococcus aureus ATCC 29213 assessed as fold increase in MIC incubated for 24 hrs in presence of 1 mM Mg2+ by CLSI based broth dilution method; format: functional
[25] = system: Klebsiella pneumoniae; experiment: Antibacterial activity against Klebsiella pneumoniae ATCC 10031 assessed as inhibition of bacterial growth incubated for 24 hrs by CLSI based broth dilution method; format: functional
[26] = system: Escherichia coli; experiment: Antibacterial activity against Escherichia coli ATCC 25922 assessed as fold increase in MIC incubated for 24 hrs in presence of 2.5 mM Ca2+ by CLSI based broth dilution method; format: functional
[27] = system: Staphylococcus aureus; experiment: Antibacterial activity against Staphylococcus aureus ATCC 29213 assessed as fold increase in MIC incubated for 24 hrs in presence of 2.5 mM Ca2+ by CLSI based broth dilution method; format: functional
[28] = system: Acinetobacter baumannii; experiment: Antibacterial activity against Acinetobacter baumannii R2889 assessed as inhibition of bacterial growth incubated for 24 hrs by CLSI based broth dilution method; format: functional
[29] = system: Pseudomonas aeruginosa; experiment: Antibacterial activity against Pseudomonas aeruginosa ATCC 9027 in C57BL/6 mouse model of bacterial keratitis assessed as log reduction in number of viable bacterial colonies in infected cornea at 3 mg/ml, TOP administered 4 times a day for 3 consecutive days; format: functional; conditions: time 3 day

| SMILES | MIC [2] | HC50 at 1 h [3] | MIC [4] | MIC [6] | MIC [7] | fold change (FC) [8] | fold change (FC) [9] | fold change (FC) [11] | fold change (FC) [12] | fold change (FC) [13] | fold change (FC) [14] | fold change (FC) [15] | fold change (FC) [16] | fold change (FC) [17] | fold change (FC) [18] | fold change (FC) [19] | fold change (FC) [20] | fold change (FC) [21] | fold change (FC) [24] | fold change (FC) [26] | also measured |
| --- | --- | --- | --- | --- | --- | --- | --- | --- | --- | --- | --- | --- | --- | --- | --- | --- | --- | --- | --- | --- | --- |
| CCn1cc(C(=O)O)c(=O)c2cc(F)c(N3CCNCC3)cc21 |  |  |  |  |  |  |  |  |  |  |  |  |  |  |  |  |  |  |  |  | fold change (FC) [1]: 32 |
| C=C[C@@](C)(/C=C/c1ccc(OCCCCNC(=N)N)cc1)CCC=C(C)C | 3.12 mg/L (≈ 8.46 µM) | 75.7 µg/mL | 3.12 mg/L (≈ 8.46 µM) | 25 mg/L (≈ 67.6 µM) | 1.56 mg/L (≈ 4.22 µM) |  |  |  |  |  |  |  |  |  |  |  |  |  |  |  | pKa [5]: 11.4 |
| C=C[C@@](C)(/C=C/c1ccc(OCCCCNCCN(CCN)CCN)cc1)CCC=C(C)C | 0.78 mg/L (≈ 1.71 µM) | 32.9 µg/mL | 0.78 mg/L (≈ 1.71 µM) | 3.12 mg/L (≈ 6.84 µM) | 0.78 mg/L (≈ 1.71 µM) | <2 | <2 | <2 | <2 | <2 | <2 | <2 | <2 | <2 | <2 | <2 | <2 | <2 | <2 | <2 | MIC [10]: 6.25 mg/L (≈ 13.7 µM); MIC [22]: 3.12 mg/L (≈ 6.84 µM); MIC [23]: 1.56 mg/L (≈ 3.42 µM); MIC [25]: 1.56 mg/L (≈ 3.42 µM); fold change (FC) [27]: <2; MIC [28]: 6.25 mg/L (≈ 13.7 µM) |
| C=C[C@@](C)(/C=C/c1ccc(OCCCCN2CCNCCNCCNCCNCC2)cc1)CCC=C(C)C | 1.56 mg/L (≈ 2.97 µM) | 75.2 µg/mL | 1.56 mg/L (≈ 2.97 µM) | 6.25 mg/L (≈ 11.9 µM) | 0.78 mg/L (≈ 1.48 µM) | <2 | <2 | <2 | <2 | <2 | <2 | <2 | <2 | <2 | <2 | <2 | <2 | <2 | <2 | <2 | fold change (FC) [27]: <2 |
| COc1c(N2CCNC(C)C2)c(F)cc2c(=O)c(C(=O)O)cn(C3CC3)c12 (stereo unspecified) [GATIFLOXACIN] |  |  |  |  |  |  |  |  |  |  |  |  |  |  |  |  |  |  |  |  | log(activity) [29]: 3.15 |
| C=C[C@@](C)(/C=C/c1ccc(OCCCCN(C)CCCN(C)CCCNC)cc1)CCC=C(C)C | 1.56 mg/L (≈ 3.22 µM) | 56.6 µg/mL | 1.56 mg/L (≈ 3.22 µM) | 1.56 mg/L (≈ 3.22 µM) | 0.78 mg/L (≈ 1.61 µM) | <2 | <2 | <2 | <2 | <2 | <2 | <2 | <2 | <2 | <2 | <2 | <2 | <2 | <2 | <2 | MIC [10]: 3.12 mg/L (≈ 6.46 µM); MIC [22]: 3.12 mg/L (≈ 6.46 µM); MIC [23]: 1.56 mg/L (≈ 3.22 µM); MIC [25]: 1.56 mg/L (≈ 3.22 µM); fold change (FC) [27]: <2; MIC [28]: 3.12 mg/L (≈ 6.46 µM) |
